# Experimental data reported in ChEMBL document CHEMBL4428091, “Design and optimization of (3-aryl-1H-indazol-6-yl)spiro[cyclopropane-1,3'-indolin]-2'-ones as potent PLK4 inhibitors with oral antitumor efficacy” (Bioorg Med Chem Lett, 2016).
# Key:
# [1] = Half life in human microsomes; type: ADME, Microsome
# [2] = AUC in rat at 5 mg/kg, po; type: ADME, organism-based; details: in vivo
# [3] = Lipophilicity, log D of the compound at pH 7.4; type: physicochemical; details: buffer
# [4] = target: Vascular endothelial growth factor receptor 2 (Homo sapiens, UniProt P35968); test: Inhibition of KDR (unknown origin)
# Chain of Vascular endothelial growth factor receptor 2 (P35968 whole entry): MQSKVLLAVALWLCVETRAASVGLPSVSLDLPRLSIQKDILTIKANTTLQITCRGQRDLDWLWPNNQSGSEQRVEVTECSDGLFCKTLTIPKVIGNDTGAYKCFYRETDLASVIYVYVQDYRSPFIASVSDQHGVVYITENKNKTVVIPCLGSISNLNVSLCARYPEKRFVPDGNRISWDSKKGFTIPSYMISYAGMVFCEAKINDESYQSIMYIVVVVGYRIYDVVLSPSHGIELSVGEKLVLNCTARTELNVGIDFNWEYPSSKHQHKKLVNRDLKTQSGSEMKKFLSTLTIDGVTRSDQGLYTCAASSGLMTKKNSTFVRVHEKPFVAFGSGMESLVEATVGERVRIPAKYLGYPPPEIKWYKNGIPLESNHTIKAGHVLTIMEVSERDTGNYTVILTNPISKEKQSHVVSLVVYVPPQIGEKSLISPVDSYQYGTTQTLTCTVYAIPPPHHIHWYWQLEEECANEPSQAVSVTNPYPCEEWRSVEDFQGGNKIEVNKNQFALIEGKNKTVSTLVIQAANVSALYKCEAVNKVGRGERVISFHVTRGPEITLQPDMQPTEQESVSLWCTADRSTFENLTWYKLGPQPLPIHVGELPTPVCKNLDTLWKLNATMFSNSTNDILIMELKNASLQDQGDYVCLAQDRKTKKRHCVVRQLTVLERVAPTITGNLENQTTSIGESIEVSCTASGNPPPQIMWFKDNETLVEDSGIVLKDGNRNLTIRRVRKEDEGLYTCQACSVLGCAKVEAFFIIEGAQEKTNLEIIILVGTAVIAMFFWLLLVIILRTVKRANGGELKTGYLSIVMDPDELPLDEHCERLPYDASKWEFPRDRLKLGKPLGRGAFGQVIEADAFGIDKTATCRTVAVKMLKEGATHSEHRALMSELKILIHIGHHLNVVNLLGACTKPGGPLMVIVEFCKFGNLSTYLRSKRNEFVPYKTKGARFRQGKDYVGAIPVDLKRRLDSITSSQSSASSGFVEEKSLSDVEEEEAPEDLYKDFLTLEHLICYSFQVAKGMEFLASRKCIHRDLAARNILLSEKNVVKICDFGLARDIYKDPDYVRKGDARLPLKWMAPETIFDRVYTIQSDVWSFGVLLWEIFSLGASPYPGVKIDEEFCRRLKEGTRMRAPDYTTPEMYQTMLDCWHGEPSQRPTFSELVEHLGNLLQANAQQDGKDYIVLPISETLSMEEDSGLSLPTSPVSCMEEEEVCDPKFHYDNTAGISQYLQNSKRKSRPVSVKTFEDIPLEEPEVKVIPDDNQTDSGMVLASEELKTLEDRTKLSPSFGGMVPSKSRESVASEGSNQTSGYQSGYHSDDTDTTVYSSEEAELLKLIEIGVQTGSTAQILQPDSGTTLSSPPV
# [5] = Oral bioavailability in rat at 5 mg/kg; type: ADME, organism-based; details: in vivo
# [6] = Half life in mouse microsomes; type: ADME, Microsome
# HCC1954 = test: Growth inhibition of human HCC1954; type: functional
# CYP3A4 = CYP3A4 (Homo sapiens, UniProt P08684); test: Inhibition of CYP3A4 (unknown origin) at 1 uM; type: ADME
# Chain of CYP3A4 (P08684 whole entry): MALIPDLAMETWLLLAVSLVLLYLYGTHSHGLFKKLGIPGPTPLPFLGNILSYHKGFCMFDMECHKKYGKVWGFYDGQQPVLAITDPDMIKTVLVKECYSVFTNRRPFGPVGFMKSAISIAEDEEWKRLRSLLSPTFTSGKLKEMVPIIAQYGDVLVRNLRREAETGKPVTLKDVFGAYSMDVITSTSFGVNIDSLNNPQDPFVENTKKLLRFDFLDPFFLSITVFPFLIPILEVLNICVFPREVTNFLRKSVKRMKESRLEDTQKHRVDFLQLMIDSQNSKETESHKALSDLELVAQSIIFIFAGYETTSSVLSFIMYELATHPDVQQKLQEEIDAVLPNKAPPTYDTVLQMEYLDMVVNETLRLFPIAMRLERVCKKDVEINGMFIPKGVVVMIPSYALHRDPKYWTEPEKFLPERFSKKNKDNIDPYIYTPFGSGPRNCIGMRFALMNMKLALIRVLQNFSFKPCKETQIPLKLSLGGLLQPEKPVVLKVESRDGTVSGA
# Aurora kinase B = Aurora kinase B (Homo sapiens, UniProt Q96GD4); test: Inhibition of AURKB (unknown origin)
# Chain of Aurora kinase B (Q96GD4 whole entry): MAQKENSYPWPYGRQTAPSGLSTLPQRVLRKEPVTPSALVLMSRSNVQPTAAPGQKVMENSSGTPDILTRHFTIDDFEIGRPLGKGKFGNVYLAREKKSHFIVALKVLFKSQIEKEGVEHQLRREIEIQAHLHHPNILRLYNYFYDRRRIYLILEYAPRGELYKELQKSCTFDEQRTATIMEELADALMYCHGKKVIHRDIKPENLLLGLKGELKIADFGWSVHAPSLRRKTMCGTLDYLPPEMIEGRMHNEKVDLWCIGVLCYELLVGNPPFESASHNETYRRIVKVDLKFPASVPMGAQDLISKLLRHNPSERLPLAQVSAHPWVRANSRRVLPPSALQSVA
# MDA-MB-468 = test: Growth inhibition of human MDA-MB-468 cells; type: functional
# [7] = target: T1, Serine/threonine-protein kinase PLK4 (Homo sapiens, UniProt O00444); test: Inhibition of PLK4 (unknown origin)
# T1 sequence (O00444 whole entry): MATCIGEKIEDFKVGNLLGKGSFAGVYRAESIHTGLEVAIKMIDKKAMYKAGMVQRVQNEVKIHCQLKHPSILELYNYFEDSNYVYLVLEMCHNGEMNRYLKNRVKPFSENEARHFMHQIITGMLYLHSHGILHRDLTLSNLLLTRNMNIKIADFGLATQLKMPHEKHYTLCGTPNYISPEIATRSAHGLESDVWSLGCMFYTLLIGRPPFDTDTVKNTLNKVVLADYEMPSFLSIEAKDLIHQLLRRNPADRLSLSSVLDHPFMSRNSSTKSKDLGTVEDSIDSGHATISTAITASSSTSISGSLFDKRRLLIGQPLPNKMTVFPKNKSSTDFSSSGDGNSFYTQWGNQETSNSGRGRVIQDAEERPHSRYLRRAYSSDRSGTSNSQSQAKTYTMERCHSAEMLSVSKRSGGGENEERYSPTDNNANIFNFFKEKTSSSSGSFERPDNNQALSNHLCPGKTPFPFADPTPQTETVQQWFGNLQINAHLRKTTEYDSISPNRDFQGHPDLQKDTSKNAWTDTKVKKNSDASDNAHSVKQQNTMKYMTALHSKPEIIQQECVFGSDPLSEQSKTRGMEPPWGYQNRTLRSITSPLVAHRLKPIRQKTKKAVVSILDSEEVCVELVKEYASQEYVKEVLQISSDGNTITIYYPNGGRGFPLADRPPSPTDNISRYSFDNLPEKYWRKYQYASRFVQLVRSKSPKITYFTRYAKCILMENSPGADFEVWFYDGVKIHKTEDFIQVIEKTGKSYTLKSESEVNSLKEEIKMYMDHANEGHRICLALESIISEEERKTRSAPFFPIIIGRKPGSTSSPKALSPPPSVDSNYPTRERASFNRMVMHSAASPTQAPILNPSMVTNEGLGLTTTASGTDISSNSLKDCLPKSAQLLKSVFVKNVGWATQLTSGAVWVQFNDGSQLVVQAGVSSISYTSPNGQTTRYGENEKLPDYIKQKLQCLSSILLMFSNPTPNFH
# MCF7 = test: Growth inhibition of human MCF7; type: functional
# CYP2C9 = CYP2C9 (Homo sapiens, UniProt P11712); test: Inhibition of CYP2C9 (unknown origin) at 1 uM; type: ADME
# Chain of CYP2C9 (P11712 whole entry): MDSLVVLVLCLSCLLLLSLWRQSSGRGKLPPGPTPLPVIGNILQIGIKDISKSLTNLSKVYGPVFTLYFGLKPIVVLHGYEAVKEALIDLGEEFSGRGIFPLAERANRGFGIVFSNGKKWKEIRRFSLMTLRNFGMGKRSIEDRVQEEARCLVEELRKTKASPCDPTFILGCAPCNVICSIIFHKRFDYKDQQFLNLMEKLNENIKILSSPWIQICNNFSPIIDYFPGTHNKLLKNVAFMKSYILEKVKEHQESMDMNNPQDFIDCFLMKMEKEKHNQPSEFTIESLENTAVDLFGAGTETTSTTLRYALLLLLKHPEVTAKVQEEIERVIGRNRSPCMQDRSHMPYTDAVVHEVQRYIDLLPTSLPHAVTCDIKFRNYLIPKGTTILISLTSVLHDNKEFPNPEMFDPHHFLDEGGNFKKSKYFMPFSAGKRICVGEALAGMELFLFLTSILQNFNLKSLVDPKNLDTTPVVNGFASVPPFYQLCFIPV
# [8] = AUC in rat at 1 mg/kg, iv; type: ADME, organism-based; details: in vivo
# Aurora kinase A = target: T2, Aurora kinase A (Homo sapiens, UniProt O14965); test: Inhibition of AURKA (unknown origin)
# T2 sequence (O14965 whole entry): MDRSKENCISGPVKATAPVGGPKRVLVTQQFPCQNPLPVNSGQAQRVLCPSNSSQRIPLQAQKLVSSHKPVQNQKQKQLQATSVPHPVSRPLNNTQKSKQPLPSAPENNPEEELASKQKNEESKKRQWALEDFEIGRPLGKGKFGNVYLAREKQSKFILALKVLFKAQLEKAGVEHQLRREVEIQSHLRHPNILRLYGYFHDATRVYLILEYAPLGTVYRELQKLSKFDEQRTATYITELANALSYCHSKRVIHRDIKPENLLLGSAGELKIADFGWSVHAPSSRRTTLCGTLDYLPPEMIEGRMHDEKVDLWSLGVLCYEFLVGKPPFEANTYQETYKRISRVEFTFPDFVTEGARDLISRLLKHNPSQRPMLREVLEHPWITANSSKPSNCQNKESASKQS
# [9] = Half life in rat at 1 mg/kg, iv; type: ADME, organism-based; details: in vivo
# [10] = target: T3, Receptor-type tyrosine-protein kinase FLT3 (Homo sapiens, UniProt P36888); test: Inhibition of FLT3 (unknown origin)
# T3 sequence (P36888 whole entry): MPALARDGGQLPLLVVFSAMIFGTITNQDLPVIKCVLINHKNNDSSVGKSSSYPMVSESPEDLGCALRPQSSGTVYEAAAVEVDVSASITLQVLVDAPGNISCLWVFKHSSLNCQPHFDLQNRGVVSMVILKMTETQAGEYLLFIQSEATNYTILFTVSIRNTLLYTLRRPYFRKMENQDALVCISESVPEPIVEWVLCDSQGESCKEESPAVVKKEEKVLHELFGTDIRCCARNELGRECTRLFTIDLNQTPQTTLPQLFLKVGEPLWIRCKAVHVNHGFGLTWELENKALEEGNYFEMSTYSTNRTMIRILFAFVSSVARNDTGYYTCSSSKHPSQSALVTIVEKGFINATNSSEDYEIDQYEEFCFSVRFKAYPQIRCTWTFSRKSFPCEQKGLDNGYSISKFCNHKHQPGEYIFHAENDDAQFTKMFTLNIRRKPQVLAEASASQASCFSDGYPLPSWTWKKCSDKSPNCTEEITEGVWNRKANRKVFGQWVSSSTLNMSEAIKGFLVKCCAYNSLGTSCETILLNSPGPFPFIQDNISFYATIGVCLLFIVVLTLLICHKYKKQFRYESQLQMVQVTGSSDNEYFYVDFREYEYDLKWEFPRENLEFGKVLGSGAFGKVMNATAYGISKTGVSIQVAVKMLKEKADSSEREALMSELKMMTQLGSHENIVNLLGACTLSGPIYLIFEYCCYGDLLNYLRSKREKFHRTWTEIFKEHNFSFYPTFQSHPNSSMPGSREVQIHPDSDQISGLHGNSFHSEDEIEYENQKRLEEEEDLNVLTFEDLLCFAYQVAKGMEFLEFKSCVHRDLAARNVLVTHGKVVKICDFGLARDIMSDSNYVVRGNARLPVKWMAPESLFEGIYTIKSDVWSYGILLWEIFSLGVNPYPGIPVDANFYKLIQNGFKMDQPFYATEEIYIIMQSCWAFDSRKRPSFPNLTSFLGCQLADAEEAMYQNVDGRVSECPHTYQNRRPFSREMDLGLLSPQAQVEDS
# [11] = Clearance in rat at 1 mg/kg, iv; type: ADME, organism-based; details: in vivo
# CYP2C19 = CYP2C19 (Homo sapiens, UniProt P33261); test: Inhibition of CYP2C19 (unknown origin) at 1 uM; type: ADME
# Chain of CYP2C19 (P33261 whole entry): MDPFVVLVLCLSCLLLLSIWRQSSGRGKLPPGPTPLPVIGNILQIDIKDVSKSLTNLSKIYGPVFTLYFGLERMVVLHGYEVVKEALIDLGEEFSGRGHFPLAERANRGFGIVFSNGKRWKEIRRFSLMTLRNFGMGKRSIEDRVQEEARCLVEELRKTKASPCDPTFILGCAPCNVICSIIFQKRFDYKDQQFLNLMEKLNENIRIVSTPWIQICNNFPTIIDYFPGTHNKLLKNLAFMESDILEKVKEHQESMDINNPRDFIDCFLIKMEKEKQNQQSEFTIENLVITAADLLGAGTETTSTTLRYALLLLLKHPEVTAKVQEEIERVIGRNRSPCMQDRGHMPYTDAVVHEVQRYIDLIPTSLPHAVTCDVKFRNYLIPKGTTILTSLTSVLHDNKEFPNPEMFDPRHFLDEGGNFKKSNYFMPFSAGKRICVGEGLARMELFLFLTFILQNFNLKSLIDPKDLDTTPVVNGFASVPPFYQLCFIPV
# [12] = Cmax in mouse at 25 mg/kg, po; type: ADME, organism-based; set-up: dose 25 mg/kg, route oral; details: in vivo
# [13] = AUC in mouse at 25 mg/kg, po; type: ADME, organism-based; details: in vivo
compound,measurement,setting,value
COc1ccc2c(c1)C(=Cc1ccc3c(-c4ccc(N5CCN(C)CC5)nc4)n[nH]c3c1)C(=O)N2,half-life,[1],13 min
same,AUC,[2]; read-out: AUC,24 ng·h/mL
same,logD,[3],3.5
same,IC50,[4],630 nM
same,bioavailability,[5],2%
same,half-life,[6],4 min
same,GI50,HCC1954,5900 nM
same,inhibition at 1 µM,CYP3A4,19%
same,IC50,Aurora kinase B,35 nM
same,GI50,MDA-MB-468,1300 to 3700 nM
same,IC50,[7],2.4 nM
same,GI50,MCF7,5400 nM
same,inhibition at 1 µM,CYP2C9,60%
same,AUC,[8],94 ng·h/mL
same,IC50,Aurora kinase A,700 nM
same,half-life,[9],78 min
same,IC50,[10],28 nM
same,clearance,[11],178 mL/min/kg
same,inhibition at 1 µM,CYP2C19,64%
O=C1Nc2ccccc2C1=Cc1ccc2c(-c3cc4ccccc4[nH]3)n[nH]c2c1,IC50,[7],540 nM
COc1ccc2c(c1)[C@]1(C[C@H]1c1ccc3c(-c4ccc(N5C[C@@H](C)N[C@@H](C)C5)cc4)n[nH]c3c1)C(=O)N2,half-life,[1],> 60 min
same,logD,[3],3.4
same,IC50,[4],> 5000 nM
same,Cmax,[12]; read-out: Cmax,110 ng/mL
same,half-life,[6],43 min
same,GI50,HCC1954,8800 nM
same,inhibition at 1 µM,CYP3A4,-3%
same,IC50,Aurora kinase B,13 nM
same,GI50,MDA-MB-468,5.8 nM
same,IC50,[7],1.2 nM
same,AUC,[13],170 ng·h/mL
same,GI50,MCF7,30 nM
same,inhibition at 1 µM,CYP2C9,44%
same,IC50,Aurora kinase A,> 1000 nM
same,IC50,[10],230 nM
same,inhibition at 1 µM,CYP2C19,54%
O=C1Nc2ccccc2/C1=C\c1ccc2cn[nH]c2c1,GI50,MDA-MB-468,4600 nM
same,IC50,[10],49 nM
O=C1Nc2ccccc2/C1=C\c1ccc2c(-c3nccs3)n[nH]c2c1,IC50,[7],490 nM
same,IC50,[10],72 nM
COc1ccc2c(c1)[C@]1(C[C@H]1c1ccc3c(-c4ccc(N5CCOCC5)nc4)n[nH]c3c1)C(=O)N2 (racemic),GI50,MDA-MB-468,670 nM
same,IC50,[10],1200 nM
CN1CCN(c2ccc(-c3n[nH]c4cc([C@@H]5C[C@@]56C(=O)Nc5ccc(F)cc56)ccc34)cn2)CC1,GI50,MDA-MB-468,600 nM
same,IC50,[10],98 nM
COc1ccc2c(c1)[C@]1(C[C@H]1c1ccc3c(-c4ccnc(N5CCN(C)CC5)c4)n[nH]c3c1)C(=O)N2 (racemic),GI50,MDA-MB-468,380 nM
same,IC50,[7],2.1 nM
same,IC50,[10],320 nM
CN1CCN(c2ccc(-c3n[nH]c4cc([C@@H]5C[C@@]56C(=O)Nc5ccccc56)ccc34)cn2)CC1 (racemic),GI50,MDA-MB-468,770 nM
same,IC50,[7],54 nM
same,IC50,[10],200 nM
CN1CCN(c2ccc(/C=C/c3n[nH]c4cc(/C=C5/C(=O)Nc6ccccc65)ccc34)cn2)CC1,half-life,[1],24 min
same,AUC,[2]; BLD = below limit of detection,Bld
same,logD,[3],4.5
same,Cmax,[12]; BLD = below limit of detection,Bld
same,bioavailability,[5],< 1%
same,half-life,[6],4 min
same,inhibition at 1 µM,CYP3A4,55%
same,inhibition at 1 µM,CYP2C9,67%
same,AUC,[8],170 ng·h/mL
same,half-life,[9],306 min
same,clearance,[11],107 mL/min/kg
same,inhibition at 1 µM,CYP2C19,83%
